“Also recorded” adds a separate entry of the source.

In one data set the test system is chicken embryos. Description: Chicken embryo development / teratogenicity. It counts as in vivo, white leghorn chicken. The note with it: in words; applied at HH stage 17-18. As to the method:
Chicken Embryology: Fertilized white leghorn chicken embryos were incubated at 38° C. and staged according to Hamburger and Hamilton (HH) stages of development (1951). Embryos were tested at HH stage 17-18 (day 2.5). Following membrane removal, test compounds or vehicle control solutions were applied globally over the embryo. The eggs were sealed and the development of the embryos was monitored up to HH stage 30 (E9).
Compounds of interest were screened in chicken embryos (FIGS. 7I-7P).
Concentrations used in the WT zebrafish and chicken embryo assays to assess for teratogenesis, were equal to or higher than those utilized in the fil1:EGFP and mpo:GFP zebrafish assays

Data set [1] relates to rat aortic rings (microvessel outgrowth). Description: Rat aortic ring assay of angiogenesis. Type of data set: cell-based, Sprague Dawley rats. The note with it: 50 μM, 5 days. As to the method: Matrigel® matrix (BD Biosciences) was defrosted overnight on ice. The wells of a 24 well plate were coated with 300 μL of the gel using frozen pipette tips. The gel was left to set at room temperature. When required, six week old male Sprague Dawley rats were euthanized by CO2 and decapitation. The blood was drained from the tissue and the descending aorta dissected. The aorta was cleaned in EBM media, the over lying fascia removed, and the tissue was sliced into 1-mm sections using a sterile scalpel and tweezers. The sections were rinsed in clean EBM then placed onto the coagulated gel. Another 300 μL of Matrigel® matrix was pipetted onto the ring and left to set for 30 minutes. EGM™-II endothelial growth medium (500 μL) was added to each well. The rings were incubated overnight at 37° C. The next day the media was removed and replaced with EBM containing compounds (50 μM) or media. TNP-470 ((Chloracetyl) carbamic acid (3R,4S,5S,6R)-5-methoxy-4-[(2R,3R)-2-methyl-3-(3-methyl-2-butenyl)oxiranyl]-1-oxaspiro[2.5]oct-6-yl ester) was used as a positive control. The rings were incubated in the compounds for 5 days. On day 5 the rings were imaged using an EVOS™ scope. The vessel outgrowth was quantified by binary conversion in Image J open-source image processing software and average outgrowth calculated (FIG. 9).

For the molecule `CC(N1Cc2c(N)cccc2C1=O)C12CC3CC(CC(C3)C1)C2` (centres unmarked) [Compound 81], the “effect on development / mortality of chicken embryos” value in the data set with chicken embryos is “hemorrhaging throughout the body and head; also recorded: growth reduction and hemorrhaging throughout the head”.

As for `O=C1c2ccccc2CN1C12CC3CC(CC(O)(C3)C1)C2` [Compound 86, 2,3-Dihydro-2-(tricyclo[3.3.1.1^3,7]dec-1-hydroxy-3-yl)-1H-isoindol-1-one], the microvessel outgrowth in data set [1] is recorded as 17.3%.

These data come from US11440880B2, “Thalidomide analogs and methods of use” (The USA, as represented by the Secretary, Department of …, priority 2015, dated 2022).
